Where a name gives a salt, the structure may show the parent alone.

In this assay the target is T1, FLJ13397 clone-derived protein (CARP) (Homo sapiens, UniProt Q9H8M7).
T1 construct: A human full-length cDNA clone was expressed as a protein with an N-terminal His tag; His tag (pDEST17 Gateway vector) (N); made in house; host or cells: Escherichia coli BL21star(DE3)pLysS
T1 sequence (Q9H8M7 1-445): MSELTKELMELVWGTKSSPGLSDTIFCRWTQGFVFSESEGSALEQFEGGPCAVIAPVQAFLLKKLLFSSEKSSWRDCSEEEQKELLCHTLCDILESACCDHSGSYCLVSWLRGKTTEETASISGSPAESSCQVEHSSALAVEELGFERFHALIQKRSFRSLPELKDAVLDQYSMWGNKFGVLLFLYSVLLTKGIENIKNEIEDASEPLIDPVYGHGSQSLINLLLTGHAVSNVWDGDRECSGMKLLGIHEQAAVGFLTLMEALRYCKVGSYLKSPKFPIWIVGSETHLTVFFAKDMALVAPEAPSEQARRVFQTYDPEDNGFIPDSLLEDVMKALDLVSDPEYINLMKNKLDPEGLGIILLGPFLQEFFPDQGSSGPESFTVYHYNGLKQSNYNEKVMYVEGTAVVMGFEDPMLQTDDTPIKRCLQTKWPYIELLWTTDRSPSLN
The experiment in a line: SEC/MS (size exclusion chromatography / mass analysis) interaction analysis between FLJ13397 clone-derived protein and compounds. In kind it is binding. On the procedure:
BP-reaction was performed on human full-length cDNA clone and the cloning vector Gateway pDONR201 by the PCR cloning method using the Invitrogen Gateway system to yield an entry clone. LR-reaction was performed on this entry clone with the destination vector pDEST17 (Gateway System) and LR Clonase at 25° C. for 60 minutes to yield an expression plasmid. Escherichia coli competent cell BL21star(DE3)pLysS were transformed with this expression plasmid, a clone incorporating the expression vector was selected, and a frozen stock was prepared. The transformant was inoculated into LB medium and precultured, after which it was transferred into SB medium and cultured to induce the expression by IPTG, and the cells were stored frozen.
A human full-length cDNA clone was expressed as a protein with an N-terminal His tag. This clone was purified using BioRobot 8000 (Qiagen) or ACTA Crystal (Amersham). […] In the purification with ACTA Crystal, affinity purification using a HisTrap HP column was followed by gel filtration purification using the Gel Filtration Column HiLoad 16/60 or a 10/30 Superdex 75 prep grade column. The purified fraction was used for interaction analysis after being subjected to SDS-PAGE to verify the estimated molecular weight and purity.
To analyze the interactions between commonly used drugs and proteins expressed from human full-length cDNA clones while keeping both the proteins and the compounds in non-modified, non-immobilized state, size exclusion chromatography (SEC) and mass analysis were used in combination (FIGS. 1 and 2). The specific procedures are shown below.
The compound-protein mixture prepared in step 1 was subjected to chromatography using an SEC column, the compound and the protein were separated by SEC, and the bound compound or compound that interacted with the protein in the protein fraction was analyzed using a mass analyzer.
Protein concentrations were measured using BCA Protein Assay (PIERCE), in consideration of the purity calculated by SDS-PAGE.
Mass analysis was performed using LCQ DECA XP (Thermoelectron) or Q-TOFmicro (Micromass), equipped with an ESI probe. The LC pump used was Agilent 1100 (Yokogawa Analytical Systems), and the autosampler used was HTC-PAL (CTC Analytics) equipped with a cooling stacker.
In the SEC method using a 384-well spin column, Unifilter 100 (Whatman), packed with 10 μL (dry volume) of Bio-Gel P6 (BIO-RAD) and swollen with milliQ water, was used as the SEC column. […] The SEC spin column was mounted on an acetonitrile-aliquoted 384-well U-bottom plate and centrifuged; the SEC spin column filtrate, which is a protein fraction, was retrieved in 50% acetonitrile. The protein precipitate produced by the acetonitrile was removed via centrifugation and filtration for protein removal; the resulting filtrate was concentrated by centrifugation and re-dissolved in 10 μL of 50% methanol to obtain a mass analysis sample. The mobile phase supplied to the mass analyzer was 0.1% formic acid/50% methanol solution in the positive ion mode, and 0.1% ammonia/50% methanol solution in the negative ion mode; these mobile phases were used at a flow rate of 40 μL/min. 2-μL of mass analysis samples were injected using an autosampler at 2-Minute intervals; the mass spectral intensity of the compound was measured to obtain the spectral intensity of the pharmaceutical compound contained in the SEC spin column filtrate (protein fraction eluted from SEC).

The mark [1] stands for this setting: compound 1 μM, protein 0 μM (protein-free reference).
Where [2] appears, read: compound 1 μM, protein 23.75 μM.
The mark [3] stands for this setting: compound 10 μM, protein 0 μM (protein-free reference).
Where [4] appears, read: compound 10 μM, protein 23.75 μM.
Where [5] appears, read: compound 10 μM, protein 47.5 μM.
Where [6] appears, read: compound 100 μM, protein 0 μM (protein-free reference).
Setting [7] is: compound 100 μM, protein 23.75 μM.
The mark [8] stands for this setting: compound 100 μM, protein 47.5 μM.
The mark [9] stands for this setting: compound 250 μM, protein 0 μM (protein-free reference).
[10] abbreviates: compound 250 μM, protein 23.75 μM.
[11] abbreviates: compound 250 μM, protein 47.5 μM.

`CC[C@@H](C(=O)[C@@H](C)[C@@H](O)[C@H](C)CCc1ccc(C)c(O)c1C(=O)O)[C@H]1O[C@](CC)([C@H]2CC[C@](O)(CC)[C@H](C)O2)C[C@@H]1C` [Lasalocid sodium salt]: the “spectrum intensity of the extracted mass range (compound in SEC spin column filtrate)” value (shortened to “spectrum intensity”) is, setting by setting: under setting [1], 9674294; under setting [2], 11601595; (compound 1 μM, protein 47.5 μM) 10467838; under setting [3], 13154726; under setting [4], 20062681; under setting [5], 46504126. Also, the “spectrum intensity” value under setting [6] is 945932706; the “spectrum intensity” value under setting [7] came to 2538387120; the “spectrum intensity” value under setting [8] is reported as 3226817361; the “spectrum intensity” value under setting [9] came out at 2174989976; the “spectrum intensity” value under setting [10] stood at 9287976762; the “spectrum intensity” value under setting [11] is 9802098210.
As for `COC(=O)Nc1nc2ccc(C(=O)c3ccccc3)cc2[nH]1` [Mebendazole], the “spectrum intensity” value runs as follows: under setting [1], 495347; under setting [2], 480780; (compound 1 μM, protein 47.5 μM) 495499; under setting [3], 525296; under setting [4], 777305; under setting [5], 725295. Also, the “spectrum intensity” value under setting [6] was found to be 482901; the “spectrum intensity” value under setting [7] is on record as 15054045; the “spectrum intensity” value under setting [8] is recorded as 9517765; the “spectrum intensity” value under setting [9] stood at 444136; the “spectrum intensity” value under setting [10] is reported as 32097734; the “spectrum intensity” value under setting [11] was found to be 43484997.
For `COC(=O)Nc1nc2ccc(C(=O)c3cccs3)cc2[nH]1` [Nocodazole], the “spectrum intensity” value came to 8235638 under setting [1]; 5202611 under setting [2]; 3977550 (compound 1 μM, protein 47.5 μM); 4879694 under setting [3]; 6159010 under setting [4]; 9316181 under setting [5]. Further, the “spectrum intensity” value reads like this: under setting [6], 6162151; under setting [7], 33749400; under setting [8], 37180973; under setting [9], 9512433; under setting [10], 131043824; under setting [11], 227971112.
Take `COC(=O)Nc1nc2ccc([S+]([O-])c3ccccc3)cc2[nH]1` (stereo not shown) [Oxfendazole]: the “spectrum intensity” value by setting is: under setting [1], 23723676; under setting [2], 29471243; (compound 1 μM, protein 47.5 μM) 35025210; under setting [3], 28662280; under setting [4], 41004899; under setting [5], 42911925. The “spectrum intensity” value runs as follows: under setting [6], 106348780; under setting [7], 160312456; under setting [8], 180803127; under setting [9], 128622627; under setting [10], 264420112; under setting [11], 506800735.
Turning to `CCCOc1ccc2nc(NC(=O)OC)[nH]c2c1` [Oxibendazole], the “spectrum intensity” value is 570160 under setting [1]; 595458 under setting [2]; 529117 (compound 1 μM, protein 47.5 μM); 525337 under setting [3]; 3533115 under setting [4]; 9671167 under setting [5]. Besides, the “spectrum intensity” value came to 1292692 under setting [6]; 7303166 under setting [7]; 8921904 under setting [8]; 2449247 under setting [9]; 20401030 under setting [10]; 13559202 under setting [11].
For `CC(C)(C)c1ccc(C(O)CCCN2CCC(C(O)(c3ccccc3)c3ccccc3)CC2)cc1` (stereo not shown) [Terfenadine], the “spectrum intensity” value by setting is: under setting [1], 1817431; under setting [2], 1889743; (compound 1 μM, protein 47.5 μM) 1281933; under setting [3], 2641416; under setting [4], 9434699; under setting [5], 8393491. Besides, the “spectrum intensity” value is reported as 241452949 under setting [6]; 175843248 under setting [7]; 549040113 under setting [8]; 644365611 under setting [9]; 1389061661 under setting [10]; 1700398168 under setting [11]. For the same molecule, the “interaction with the FLJ13397-expressed protein (judgement)” value (judged from increase of spectrum intensity with doses of compound and protein) is recorded as “concentration-dependent interaction”.

These data come from US8153385B2, “Target protein and target gene in drug designing and screening method” (Reverse Proteomics Research Institute Co., Ltd., priority 2004, dated 2012).
